Results published in patent US20140128260A1, “Compositions and Methods for Post Emergent Weed Control with Dim Herbicides and Gibberellic Acid” (Valent U.S.A. Corporation, priority 2012, published 2014).

Experiments:
[1] = system: Glyphosate resistant corn; assay: Effect of clethodim and GA3 treatments on planted glyphosate resistant corn (Example 2); assay type: in vivo
Procedure: A further study was performed in order to confirm the effect clethodim and GA3 treatments have on corn. Glyphosate resistant corn was planted with a conventional four-row planter. Treatments were applied 28 days after the plantings.
Effect of Clethodim and GA3 Treatments on corn (% control).

Johnsongrass = assay: Effect of clethodim and GA3 treatments on Johnsongrass, field plots (Example 1); assay type: in vivo, sorghum halepense
Procedure: In order to determine the efficacy of combinations of clethodim and GA3, numerous treatments were applied to plots in an area with abundant Johnsongrass growth.
The percent control of Johnsongrass plants was evaluated at 7, 18 and 28 days following the treatment. Effect of Clethodim and GA3 Treatments on Johnsongrass (% control).”
The percent control refers to the amount of dead tissue on the plants present. It would be dead plants plus desiccated foliage on partially killed plants.

Compound | Corn % control ([1]; 6 DAT, clethodim 32 gm ai/a, with NIS and AMS) | Corn % control ([1]; 13 DAT, clethodim 32 gm ai/a, with NIS and AMS) | Corn % control ([1]; 29 DAT, clethodim 32 gm ai/a, with NIS and AMS) | Activity of clethodim on corn in the presence of GA3 ([1]; in vivo) | Johnsongrass % control (Johnsongrass; 7 DAT, clethodim 32 x g ai/a (9 fl oz/a of Selectmax), with 0.25% v/v NIS and 2.5 lb/acre AMS) | Johnsongrass % control (Johnsongrass; 18 DAT, clethodim 32 x g ai/a (9 fl oz/a of Selectmax), with 0.25% v/v NIS and 2.5 lb/acre AMS) | Johnsongrass % control (Johnsongrass; 28 DAT, clethodim 32 x g ai/a (9 fl oz/a of Selectmax), with 0.25% v/v NIS and 2.5 lb/acre AMS) | Corn % control ([1]; 6 DAT, GA3 3 g ai/a, with 0.25% v/v NIS and 2.5 lb/acre AMS) | Corn % control ([1]; 6 DAT, GA3 10 g ai/a, with NIS and AMS) | Corn % control ([1]; 13 DAT, GA3 3 g ai/a, with NIS and AMS) | Corn % control ([1]; 13 DAT, GA3 10 g ai/a, with NIS and AMS) | Corn % control ([1]; 29 DAT, GA3 3 g ai/a, with NIS and AMS) | Corn % control ([1]; 29 DAT, GA3 10 g ai/a, with NIS and AMS) | Johnsongrass % control (Johnsongrass; 7 DAT, GA3 5 g ai/a (5 fl oz/a of ProGibb 4%)) | Johnsongrass % control (Johnsongrass; 7 DAT, GA3 25 g ai/a (25 fl oz/a of ProGibb 4%)) | Johnsongrass % control (Johnsongrass; 18 DAT, GA3 5 g ai/a (5 fl oz/a of ProGibb 4%)) | Johnsongrass % control (Johnsongrass; 18 DAT, GA3 25 g ai/a (25 fl oz/a of ProGibb 4%)) | Johnsongrass % control (Johnsongrass; 28 DAT, GA3 5 g ai/a (5 fl oz/a of ProGibb 4%)) | Johnsongrass % control (Johnsongrass; 28 DAT, GA3 25 g ai/a (25 fl oz/a of ProGibb 4%)) | Effect of GA3 on the activity of clethodim on Johnsongrass (Johnsongrass; seven days following treatment)
CCSC(C)CC1CC(=O)C(C(CC)=NOC/C=C/Cl)=C(O)C1 (centres unmarked) [Clethodim, 2-[1-[[[(2E)-3-chloro-2-propen-1-yl]oxy]imino]propyl]-5-[2-(ethylthio)propyl]-3-hydroxy-2-cyclohexen-1-one] | 48.33% | 88.33% | 96.00% | significantly increased | 37.21% | 85.66% | 89.26% |  |  |  |  |  |  |  |  |  |  |  |  | 
C=C1C[C@]23C[C@@]1(O)CC[C@H]2[C@@]12C=C[C@H](O)[C@@](C)(C(=O)O1)[C@H]2[C@@H]3C(=O)O [GA3, Gibberellic acid] |  |  |  |  |  |  |  | 0% | 0% | 0% | 0% | 0% | 0% | 0% | 0% | 0.32% | 0% | 0% | 0% | more than doubles the activity of clethodim
